Assay results reported in patent US20100310561A1, “NATRIURETIC FUSION PROTEINS” (BOEHRINGER INGELHEIM INTERNATIONAL GMBH, priority 2007, published 2010).
Like-named read-outs stand apart in the source and are kept apart here. Blank lines part the entries; values can stand above or below the molecule they belong to.

Tests used:
Dog NPRA = test: cGMP assay, canine NPRA expressing 293 cells; assay type: cell-based
Method: (§1) Natriuretic peptides of >95% HPLC purity were obtained from Sigma. HEK293 NPRA cells grown to 90% confluence were harvested using HANKS based Cell Dissociation Medium (GIBCO). Cells were washed and resuspended at 3.3×10^5 cells per mL in pre warmed Dulbecco's PBS, pH 7.4, 25 mM HEPES, 0.1% BSA, 500 μM 3-Isobutyl-1-methylxanthine (IBMX) [Assay Buffer]. Assays were performed in Optiplate-96 White Opaque 96-well Microplates (Perkin Elmer). 15 μL of cell suspension is added to 15 μL of 2× fusion protein in Assay Buffer in triplicate and incubated for 20 minutes at 37° C. The cGMP concentration was measured using the HitHunter™ cGMP Assay Kit (DiscoveRx Corporation). cGMP production dose response curves were generated with a four parameter logistic equation fitted using the Levenburg Marquardt algorithm in XLfit4.2 data analysis software (ID Business Solutions, Ltd.).
Human ANP28 peptide was assayed for cGMP production in species specific NPRA transfected 293 or 293T cells. Dose response curves for cGMP production stimulated by human ANP28 peptide in rat NPRA (rNPRA) expressing 293T cells and human NPRA (hNPRA) and canine NPRA (caNPRA) expressing 293 cells are shown in FIG. 2.
The selectivity of the recombinant ANP-Fc fusion proteins was assessed by analyzing their efficacy in NPRB expressing cell lines. […]

Monkey NPRA = test: cGMP assay, monkey NPRA expressing HEK293 cells; assay type: cell-based; conditions: Table 4
Method: as §1
The selectivity of the recombinant ANP-Fc fusion proteins was assessed by analyzing their efficacy in NPRB expressing cell lines. The species cross-reactivity of the ANP-Fc fusion proteins was tested in rat, canine, and monkey NPRA expressing HEK293 cell lines. The ANP-Fc fusions tested have good cross-reactivity in the rat, canine, and monkey NPRA mediated cGMP assays (Table 4). The ANP-Fc fusion proteins have nearly equivalent dose response values when tested in human, dog and monkey expressing NPRA cells. […]

[1] = humans; Potter et al.; cited from earlier work
human NPRA = biological target: T1, human NPRA (Homo sapiens, UniProt P16066); test: Natriuretic peptide fusion protein induced cGMP assay, human NPRA transfected HEK293 cells; assay type: cell-based
T1 sequence (P16066 33-1061): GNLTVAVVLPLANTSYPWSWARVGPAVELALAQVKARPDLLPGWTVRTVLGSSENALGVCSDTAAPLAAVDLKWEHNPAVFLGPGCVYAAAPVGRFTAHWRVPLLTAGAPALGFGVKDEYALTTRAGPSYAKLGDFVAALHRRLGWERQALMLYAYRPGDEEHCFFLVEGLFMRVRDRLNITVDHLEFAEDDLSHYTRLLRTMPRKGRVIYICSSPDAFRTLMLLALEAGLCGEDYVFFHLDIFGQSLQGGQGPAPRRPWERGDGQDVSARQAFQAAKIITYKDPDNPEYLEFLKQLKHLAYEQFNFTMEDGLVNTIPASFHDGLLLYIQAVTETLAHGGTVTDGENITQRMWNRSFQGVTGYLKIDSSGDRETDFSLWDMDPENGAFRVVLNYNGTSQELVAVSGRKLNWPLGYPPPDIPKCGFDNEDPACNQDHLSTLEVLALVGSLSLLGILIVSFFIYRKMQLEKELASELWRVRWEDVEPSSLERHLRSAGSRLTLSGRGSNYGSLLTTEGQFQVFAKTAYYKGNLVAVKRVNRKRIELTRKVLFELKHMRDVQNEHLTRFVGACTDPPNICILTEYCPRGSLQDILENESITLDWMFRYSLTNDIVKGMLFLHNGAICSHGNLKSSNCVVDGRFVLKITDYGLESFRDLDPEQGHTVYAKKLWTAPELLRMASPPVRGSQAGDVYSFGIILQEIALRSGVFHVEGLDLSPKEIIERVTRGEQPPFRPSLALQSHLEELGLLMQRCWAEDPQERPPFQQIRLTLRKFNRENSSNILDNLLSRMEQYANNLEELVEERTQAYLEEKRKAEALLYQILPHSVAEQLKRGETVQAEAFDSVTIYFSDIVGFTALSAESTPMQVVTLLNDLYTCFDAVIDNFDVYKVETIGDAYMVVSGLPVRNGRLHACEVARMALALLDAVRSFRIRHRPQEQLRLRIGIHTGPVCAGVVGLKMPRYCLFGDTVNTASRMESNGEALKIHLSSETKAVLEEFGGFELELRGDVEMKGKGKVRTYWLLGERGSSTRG
From the text: Full-length human NPRA, human NPRB, and human […] (NPRC) sequence containing plasmids were purchased from OriGene Technologies, Inc. (Rockville, Md.) then sub-cloned into pcDNA3.1 directional mammalian expression vector (Invitrogen). Insert orientation and nucleotide sequence of each construct was verified by an outside vendor (SeqWright, Inc.). The pcDNA3.1 NPR clones were transfected using Lipofectamine (Invitrogen) into HEK293 cells where stable cell lines expressing human NPRA, human NPRB, or human NPRC are selected using G418. Clones were screened using the natriuretic peptide induced cGMP assay described below. (NPRA clones were treated with human ANP while NPRB clones were treated with human CNP (Sigma)). High cGMP producing clones were expanded. NPRC clones were screened using a ^125I ANP binding assay. ^125I ANP high binders were expanded. […]
Natriuretic peptides of >95% HPLC purity were obtained from Sigma. […] The cGMP concentration was measured using the HitHunter™ cGMP Assay Kit (DiscoveRx Corporation). cGMP production dose response curves were generated with a four parameter logistic equation fitted using the Levenburg Marquardt algorithm in XLfit4.2 data analysis software (ID Business Solutions, Ltd.).
Results 1 from both Labs 1 and 2 were generated by interpreting the raw Relative Luminescence Units (RLU). […]

EC50 (Dog NPRA; Table 4, read-out: cGMP EC50 (nM) Dog NPRA): 1.3 nM
EC50 (Dog NPRA; caNPRA 293 cells, read-out: Mean EC50 nM, cGMP-caNPRA 293): 1.34 nM
EC50 (Monkey NPRA): 0.5 nM
Molecule: CC[C@H](C)[C@@H]1NC(=O)[C@H](CCCNC(=N)N)NC(=O)[C@H](CC(=O)O)NC(=O)[C@H](CCSC)NC(=O)[C@H](CCCNC(=N)N)NC(=O)CNC(=O)CNC(=O)[C@H](Cc2ccccc2)NC(=O)[C@@H](NC(=O)[C@H](CO)NC(=O)[C@H](CO)NC(=O)[C@H](CCCNC(=N)N)NC(=O)[C@H](CCCNC(=N)N)NC(=O)[C@H](CC(C)C)NC(=O)[C@@H](N)CO)CSSC[C@@H](C(=O)N[C@@H](CC(N)=O)C(=O)N[C@@H](CO)C(=O)N[C@@H](Cc2ccccc2)C(=O)N[C@@H](CCCNC(=N)N)C(=O)N[C@@H](Cc2ccc(O)cc2)C(=O)O)NC(=O)CNC(=O)[C@H](CC(C)C)NC(=O)CNC(=O)[C@H](CO)NC(=O)[C@H](CCC(N)=O)NC(=O)[C@H](C)NC(=O)CNC1=O [Construct 1, ANPXY]

Molecule: BNP: B-type natriuretic peptide
plasma half life [1]: approximately 20 minutes

Molecule: Wild-type rat ANP: rat atrial natriuretic peptide, differs from human ANP by one amino acid (SLRRSSCFGGRIDRIGAQSGLGCNSFRY) [reference compound]
EC50 compared with human ANP in the human NPRA cGMP assay (human NPRA): slightly higher
